Read-outs that look alike come from different tables or passages of the source.
Assays:
HCV replicon = assay: Anti-HCV replicon assay, EC50 (luciferase luminescence); assay type: cell-based; settings: Hepatitis C virus
Method: (§1) The anti-HCV activity of certain pyrido[3,2-d]pyrimidine derivatives of this invention was tested in a human hepatoma Huh-7 cell line harbouring a HCV replicon. The assay comprised the following steps:
(§2) Step 1: Compound Preparation and Serial Dilution
(§3) • 1. for water soluble pyrido[3,2-d]pyrimidine derivatives, a volume of 500 μL of solution in cell media (DMEM, 10% FBS, P/S, L-Glutamine) was prepared with a concentration being twice the concentration of the starting final serial dilution concentration. A volume of 150 μL of the solution was added to the pre-specified wells in column 1 of a 96-well cell culture plate (PerkinElmer, white plate, cat. #6005181, for EC50 assay; black plate, cat. #6005182 for CC50 assay). The rest of the plate, columns 2-12, was filled with 100 μL of cell media. The plate was then placed on a Precision 2000 Workstation to start the serial dilution. Compounds were diluted three times each step from column 1 to column 10. Column 11 was used as a blank control (no compound added). • 2. for pyrido[3,2-d]pyrimidine derivatives requiring DMSO to dissolve, serial dilution is performed in 50% DMSO in a 384-well plate. A solution containing a compound at 100-fold concentration of the starting final serial dilution concentration was prepared in 50% DMSO and added to the pre-specified wells in column 1 of a polypropylene 384-well plate. The plate was then placed on a Precision 2000 Workstation to start the serial dilution. After the serial dilution, a volume of 2 μL of the solution was transferred from the 384-well plate to a 96-well cell culture plate containing 100 μL of cell media on a Biomek FX Workstation. The DMSO concentration in the final assay condition was 0.5% after cells are added to the plate and the total volume in each well is brought to 200 μL. Step 2: to each well of the serial dilution plate prepared above, 100 μL of cell media containing 6000 suspended Huh-7 HCV replicon cells was added with a Multidrop workstation. The plates were incubated for 3 days at 37° C. with 5% CO2. Step 3: Detection: • a) for the EC50 assay, the media in a 96-well cell culture plate was aspirated with a Biotek EL405 plate-washer. A volume of 200 μL of a solution containing a 1:1 mixture of cell-lysis buffer (Promega, Luciferase Cell Culture Lysis 5× Reagent, cat. #E1531) and luciferase substrate solution (Promega, Luciferase Assay, cat. # E4550) was added to each well of the plate with Multidrop. The plate was incubated for 30 minutes at room temperature before the luminescence signal was measured with a TopCount plate-reader. • b) for the CC50 assay, a volume of 100 μL of pre-mixed CellTiter-Glo (Promega, cat. # G7572) solution is added directly to the cell culture in each well of the plate and the luminescence signal is measured with a TopCount plate-reader after 10 minutes of incubation at room temperature.
(§4) Results in the table below are expressed by the following data: • the 50% cytostatic concentration (CC50). i.e. the concentration that results in 50% inhibition of cell growth, and • the 50% effective concentration (EC50), i.e. the concentration that protects 50% of the cell monolayer from virus-induced cythopathic effect.

[1] = CC50 assay (CellTiter-Glo) in the replicon cells; assay type: cell-based; settings: human, Huh-7 HCV replicon cells, 3 days incubation, 50% inhibition of cell growth
Method: as §1, §2, §3, §4

[2] = 72 h, human hepatoma Huh-7 cell line harbouring a HCV replicon, 3 days incubation, luciferase readout, read-out: EC50

| Structure (SMILES) | EC50 (HCV replicon; [2]) | CC50 at 3 days [1] | EC50 (HCV replicon; Huh-7, 72 h) |
| --- | --- | --- | --- |
| CCCc1nc(N)nc2ccc(-c3ccc(F)cc3)nc12 [Example 2, 6-(4-fluorophenyl)-4-n-propyl-pyrido[3,2-d]pyrimidin-2-yl-amine] | < 300 nM | > 20000 nM | – |
| CCCc1nc(N)nc2ccc(-c3ccc(NC(C)=O)cc3)nc12 [Example 3, N-[4-(2-amino-4-n-propyl-pyrido[3,2-d]pyrimidin-6-yl)-phenyl]-acetamide] | 300 to 1000 nM | > 20000 nM | – |
| CCc1nc(N)nc2ccc(-c3ccc(F)cc3)nc12 [Example 5, 4-ethyl-6-(4-fluoro-phenyl)-pyrido[3,2-d]pyrimidin-2-ylamine] | < 300 nM | < 10000 nM | – |
| CC(C)Cc1nc(N)nc2ccc(-c3ccc(F)cc3)nc12 [Example 6, 6-(4-fluorophenyl)-4-isobutyl-pyrido[3,2-d]pyrimidin-2-ylamine] | < 300 nM | > 20000 nM | – |
| C=CCCc1nc(N)nc2ccc(-c3ccc(F)cc3)nc12 [Example 7, 4-but-3-enyl-6-(4-fluorophenyl)-pyrido[3,2-d]pyrimidin-2-ylamine] | – | > 20000 nM | < 300 nM |
| CCc1nc(N)nc2ccc(-c3ccc(N4CCCC4=O)cc3)nc12 [Example 8, 1-[4-(2-amino-4-ethyl-pyrido[3,2-d]pyrimidin-6-yl)-phenyl]-pyrrolidin-2-one] | < 300 nM | > 20000 nM | – |
| CCc1nc(N)nc2ccc(-c3cnc(N)cn3)nc12 [Example 9, 6-(5-Amino-pyrazin-2-yl)-4-ethyl-pyrido[3,2-d]pyrimidin-2-ylamine] | 300 to 1000 nM | < 10000 nM | – |
| Nc1nc(CCC2OCCCO2)c2nc(-c3ccc(F)cc3)ccc2n1 [Example 10, 4-(2-[1,3]dioxan-2-yl-ethyl)-6-(4-fluoro-phenyl)-pyrido[3,2-d]pyrimidin-2-ylamine] | – | > 20000 nM | 300 to 1000 nM |
| Cc1nc(N)nc2ccc(-c3ccc(F)cc3)nc12 [Example 11, 4-methyl-6-(4-fluorophenyl)-pyrido[3,2-d]pyrimidin-2-ylamine] | < 300 nM | < 10000 nM | – |
| CC(C)c1nc(N)nc2ccc(-c3ccc(F)cc3)nc12 [Example 12, 6-(4-fluorophenyl)-4-isopropyl-pyrido[3,2-d]pyrimidin-2-ylamine] | < 300 nM | > 20000 nM | – |
| Nc1nc(C2CC2)c2nc(-c3ccc(F)cc3)ccc2n1 [Example 13, 4-Cyclopropyl-6-(4-fluoro-phenyl)-pyrido[3,2-d]pyrimidin-2-ylamine] | < 300 nM | 10000 to 20000 nM | – |
| Nc1nc(C2CC2)c2nc(-c3ccc(N4CCCC4=O)cc3)ccc2n1 [Example 14, 1-[4-(2-amino-4-cyclopropyl-pyrido[3,2-d]pyrimidin-6-yl)-phenyl]-pyrrolidin-2-one] | < 300 nM | 10000 to 20000 nM | – |

— patent US8338435B2, “Substituted pyrido(3,2-D) pyrimidines and pharmaceutical compositions for treating viral infections” (Gilead Sciences, Inc., priority 2006, dated 2012)
